The values below come from patent publication US8058285B2, “Substituted pyrido [3′, 2′: 4, 5] thieno [3, 2-D] pyrimidines and pyrido [3′, 2′: 4, 5] furo [3, 2-D] pyrimidines used as inhibitors of the PDE-4 and/or the release of TNF-ALPHA” (The Medicines Company (Leipzig) GmbH, priority 2004, dated 2011).

The target of one data set is T1, PDE-4A (Homo sapiens, UniProt P27815).
T1 construct: PDE-4A catalytic domain comprising amino acids 342-704; made in house; host or cells: Escherichia coli
Kind of data set: PDE-4A inhibitory assay (SPA). Type of data set: biochemical. In a few lines:
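Human recombinant PDE-4A catalytic domain (aa 342-704), E. coli-expressed. SPA with 1 μM [^3H]-cAMP substrate in 100 mM Tris-HCl pH 7.5, 5 mM MgCl2, 1% DMSO; 20 min at 22° C. Non-specific activity with 100 μM rolipram subtracted.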

A further data set relates to TNFα release. Nature of the data set: LPS-induced TNFα release in diluted human blood (ELISA). Type of data set: cell-based. Particulars: LPS 1 μg/ml, human blood diluted 1:5, 24 h; read-out: IC50 value in the TNFα inhibitory assay. From the text:
Isolated leukocytes can be stimulated for the release of cytokines in different ways. Lipopolysaccharides (LPS) are a stimulus for the investigation of the TNFα release. LPS is part of bacterial cell walls and is released when the bacteria are killed (by antibiotics or the natural immune system). LPS stimulates in particular the activity of phagocytizing leukocytes (tissue macrophages, granulocytes, monocytes) and causes the infiltration of leukocytes from the peripheral blood into the affected tissue. A cytokine of special significance for these mechanisms is TNFα which is secreted in large amounts by the affected cells. The main source are here monocytes and macrophages. TNFα initiates and prolongs the inflammatory process in cooperation with other mediators.
For the investigation of the effect on the LPS-induced TNFα release a method was used which was described by Marx, D., Tassabehji, M., Heer, S., Hüttenbrink, K.-B., and I. Szelenyi, Pulmonary Pharmacology & Therapeutics (2002) 15, 7-15. The method is briefly: Human blood was taken from various donors, rendered incoagulable by the addition of 10 mM Na citrate and diluted 1:5 with RPMI 1640 cell culture medium. The test substances were added to the blood samples at various concentrations. 15 min later, the leukocytes were stimulated by the addition of lipopolysaccharides (LPS) from Salmonella abortus equi at a final concentration of 1 μg/ml. After the incubation of the test batches at 37° C. and under 5% CO2 in a water-saturated air for 24 h, the blood was centrifuged and the TNFα concentration in the cell-free supernatant was accurately measured using a purchasable ELISA (BD Biosciences) according to the manufacturer's instructions.
For orientation: In an ELISA, binding on a coated surface is turned into a signal by an enzyme label.

For a further data set, the system named is CLL cells. Kind of data set: Cytotoxicity on CLL cells, formazan reduction assay (MTT test). The following applies: 1 μM, 24 h incubation of the patient's blood, primary CLL. How it is done: The positive control used was fludarabine which is employed for CLL as a standard chemotherapeutic agent.
The cytotoxicity of the CLL cells was determined by means of a commercially available formazan reduction assay (MTT test) after 24 h of incubation of the patient's blood with the active substances.
On the technique in general: Tetrazolium dyes change colour on reduction, which living cells bring about.

Another data set concerns PDE-4. Particulars: cited from earlier work.

Some results are limits rather than exact numbers.

T1 sequence (P27815 342-704): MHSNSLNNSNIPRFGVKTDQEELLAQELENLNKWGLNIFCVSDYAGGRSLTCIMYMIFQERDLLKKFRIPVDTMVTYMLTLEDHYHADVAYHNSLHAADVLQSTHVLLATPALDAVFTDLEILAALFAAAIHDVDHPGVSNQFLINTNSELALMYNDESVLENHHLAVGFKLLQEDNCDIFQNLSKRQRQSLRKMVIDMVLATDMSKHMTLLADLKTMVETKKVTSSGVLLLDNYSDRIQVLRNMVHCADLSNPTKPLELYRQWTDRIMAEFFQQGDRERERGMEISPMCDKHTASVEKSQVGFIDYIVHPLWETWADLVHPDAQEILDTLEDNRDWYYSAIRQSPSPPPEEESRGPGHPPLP

As for `CCOc1nc(N2CCNCC2)c2oc3nc(-c4ccccc4)cc(C)c3c2n1` [2-Ethoxy-7-phenyl-9-methyl-4-(piperazin-1-yl)-pyrido[3′,2′:4,5]furo[3,2-d]pyrimidine], the melting point stood at 175 °C. Moreover, at PDE-4A, the half-maximal inhibitory concentration (IC50) was in the range of 2 to 50 nM. Consider `CCOc1nc(N2CCNCC2)nc2c1sc1nc(-c3ccc[n+]([O-])c3)cc(C(F)(F)F)c12` [4-Ethoxy-7-(1-oxy-pyridin-3-yl)-2-(piperazin-1-yl)-9-trifluoromethyl-pyrido[3′,2′:4,5]thieno[3,2-d]pyrimidine], for which the IC50 in the data set with TNFα release is under 2000 nM; on PDE-4A, 2 to 50 nM. The corresponding values for `CCOc1nc(N2CCNCC2)nc2c1sc1nc(-c3cc[n+]([O-])cc3)cc(C(F)(F)F)c12` [4-Ethoxy-7-(1-oxy-pyridin-4-yl)-2-(piperazin-1-yl)-9-trifluoromethyl-pyrido[3′,2′:4,5]thieno[3,2-d]pyrimidine] are under 2000 nM and 2 to 50 nM. On the same counts, the results for `CCOc1nc(N2CCNCC2)nc2c1sc1nc(-c3ccc(-n4ccnc4)cc3)cc(C(F)(F)F)c12` [4-Ethoxy-7-(4-(1H-imidazol-1-yl)phenyl)-2-(piperazin-1-yl)-9-trifluoromethyl-pyrido[3′,2′:4,5]thieno[3,2-d]pyrimidine] are under 2000 nM and under 2 nM. The corresponding values for `CCOc1nc(N2CCNCC2)nc2c1sc1nc(-c3ccc(-c4ccoc4)cc3)nc(C)c12` [4-Ethoxy-7-(4-[3-furyl]-phenyl)-9-methyl-2-piperazin-1-yl-thieno[2,3-d:4,5-d′]dipyrimidine] are under 2000 nM and under 2 nM.

`CCOc1nc(N2CCNCC2)nc2c1sc1nc(-c3ccc(F)cc3)cc(C)c12` [4-Ethoxy-7-(4-fluoro-phenyl)-9-methyl-2-(piperazin-1-yl)-pyrido[3′,2′:4,5]thieno[3,2-d]pyrimidine]: the half-inhibitory concentration (IC50) in the data set with TNFα release is under 2000 nM; at PDE-4A, 2 to 50 nM. On to `CCOc1nc(N2CCNCC2)nc2c1sc1nc(-c3ccc(OC)cc3)cc(C)c12` [4-Ethoxy-7-(4-methoxy-phenyl)-9-methyl-2-(piperazin-1-yl)-pyrido[3′,2′:4,5]thieno[3,2-d]pyrimidine], for which the IC50 in the data set on TNFα release was under 2000 nM; against PDE-4A, 2 to 50 nM. Turning to `CCOc1nc(N2CCNCC2)nc2c1sc1nc(N3CCOCC3)cc(-c3ccccc3)c12` [4-Ethoxy-7-morpholino-9-phenyl-2-(piperazin-1-yl)-pyrido[3′,2′:4,5]thieno[3,2-d]pyrimidine], the IC50 in the data set on TNFα release was under 2000 nM; against PDE-4A, 2 to 50 nM.

For the compound `CCOc1nc(N2CCNCC2)nc2c1oc1nc(-c3ccccc3)cc(C)c12` [4-Ethoxy-7-phenyl-9-methyl-2-(piperazin-1-yl)-pyrido[3′,2′:4,5]furo[3,2-d]pyrimidine], the melting point was 131 to 132 °C. Moreover, on PDE-4A, the IC50 was 2 to 50 nM. In the case of `CCOc1nc(N2CCNCC2)nc2c1sc1nc(-c3ccc(-c4cc[nH]c4)cc3)nc(C)c12` [4-Ethoxy-9-methyl-2-piperazin-1-yl-7-(4-[3-pyrrolyl]-phenyl)-thieno[2,3-d:4,5-d′]dipyrimidine], the figures for the IC50 in the data set with TNFα release and on PDE-4A were under 2000 nM and 2 to 50 nM, respectively. `C=Cc1ccc(-c2nc(C)c3c(n2)sc2c(OCC)nc(N4CCNCC4)nc23)cc1` [4-Ethoxy-9-methyl-2-piperazin-1-yl-7-(4-vinyl-phenyl)-thieno[2,3-d:4,5-d′]dipyrimidine] yielded a melting point of 165 to 166 °C. The compound also showed an IC50 at PDE-4A of 2 to 50 nM. Regarding `CCOc1nc(N2CCNCC2)nc2c1sc1nc(-c3ccc(-c4cccc(N)c4)cc3)nc(C)c12` [7-(3′-Aminobiphen-4-yl)-4-ethoxy-9-methyl-2-piperazin-1-yl-thieno[2,3-d:4,5-d′]dipyrimidine], the IC50 is under 2000 nM with TNFα release and under 2 nM against PDE-4A. `CCOc1nc(N2CCNCC2)nc2c1sc1nc(-c3ccc(C(O)CO)cc3)nc(C)c12` (centres unmarked) [7-(4-[1,2-Dihydroxyethyl]-phenyl)-4-ethoxy-9-methyl-2-piperazin-1-yl-thieno[2,3-d:4,5-d′]dipyrimidine] came in with a melting point of over 300 °C. Also, the IC50 in the data set with TNFα release was under 2000 nM. Further, the IC50 against PDE-4A was 2 to 50 nM.

On to `CCOc1nc(N2CCNCC2)nc2c1sc1nc(C)c(Cc3ccc(N)cc3)c(C)c12` [8-(4-Amino-benzyl)-4-ethoxy-7,9-dimethyl-2-(piperazin-1-yl)-pyrido[3′,2′:4,5]thieno[3,2-d]pyrimidine], for which the figures for the IC50 in the data set with TNFα release and on PDE-4A were under 2000 nM and 2 to 50 nM, respectively. The corresponding values for `CCOc1nc(N2CCNCC2)nc2c1sc1nc(N3CCOCC3)c3c(c12)CCCC3` [8-Ethoxy-5-morpholino-10-piperazin-1-yl-pyrimido[4′,5′:4,5]thieno[2,3-c]-1,2,3,4-tetrahydro-isoquinoline] are under 2000 nM and 2 to 50 nM. On the same counts, the results for `CCCOc1nc(N2CCNCC2)nc2c1sc1nc(-c3ccccc3)cc(C)c12` [9-Methyl-7-phenyl-2-(piperazin-1-yl)-4-n-propoxy-pyrido[3′,2′:4,5]thieno[3,2-d]pyrimidine] are under 2000 nM and 2 to 50 nM. Consider `CCOc1nc(N2CCNCC2)c2sc3nc(-c4ccccc4)nc(C)c3c2n1` [Example 2, 2-ethoxy-9-methyl-4-piperazin-1-yl-7-phenyl-thieno[2,3-d:4,5-d′]dipyrimidine], for which the melting point is over 310 °C. In the case of `C/C=C/C=C/C(O)c1ccc(-c2nc(C)c3c(n2)sc2c(OCC)nc(N4CCNCC4)nc23)cc1` (centres unmarked) [Example 6, 4-ethoxy-7-(4-[{2E,4E}-1-hydroxyhexa-2,4-dienyl]phenyl)-9-methyl-2-piperazin-1-yl-thieno[2,3-d:4,5-d′]dipyrimidine], the melting point lay in the range of 149 to 150 °C.

In the case of `CCSc1nc(N2CCNCC2)c2sc3nc(-c4ccccc4)cc(C)c3c2n1` [Example 13, 2-ethylthio-9-methyl-7-phenyl-4-piperazin-1-yl-pyrido-[3′,2′:4,5]thieno[3,2-d]pyrimidine], the melting point was in the range of 150 to 154 °C. Turning to `CCS(=O)(=O)c1nc(N2CCNCC2)c2sc3nc(-c4ccccc4)cc(C)c3c2n1` [Example 15, 2-ethylsulfonyl-9-methyl-7-phenyl-4-piperazin-1-yl-pyrido-[3′,2′:4,5]thieno[3,2-d]pyrimidine], the melting point was 190 °C (dec.). In the case of `CCOc1nc(N2CCNCC2)nc2c1sc1nc(-c3ccc(NC=O)cc3)cc(C(F)(F)F)c12` [N-(4-(4-Ethoxy-9-trifluoromethyl-2-piperazin-1-yl-pyrido[3′,2′:4,5]thieno[3,2-d]pyrimidin-7-yl)-phenyl)-formamide], the IC50 is under 2000 nM in the data set with TNFα release and under 2 nM against PDE-4A.

Regarding `CCOc1nc(N2CCNCC2)nc2c1sc1nc(-c3ccc(NC(=O)c4ccncc4)cc3)cc(C(F)(F)F)c12` [N-(4-(4-Ethoxy-9-trifluoromethyl-2-piperazin-1-yl-pyrido[3′,2′:4,5]thieno[3,2-d]pyrimidin-7-yl)-phenyl)-isonicotinamide], the values for the half-inhibitory concentration (IC50) in the data set on TNFα release and at PDE-4A were under 2000 nM and under 2 nM, respectively. For `CCOc1nc(N2CCNCC2)nc2c1sc1nc(-c3ccc(NC(=O)c4cccnc4)cc3)cc(C(F)(F)F)c12` [N-(4-(4-Ethoxy-9-trifluoromethyl-2-piperazin-1-yl-pyrido[3′,2′:4,5]thieno[3,2-d]pyrimidin-7-yl)-phenyl)-nicotinamide], the IC50 with TNFα release is under 2000 nM; on PDE-4A it was under 2 nM.

For the compound `CCOc1nc(N2CCNCC2)nc2c1sc1nc(-c3ccc(C(N)=NO)cc3)cc(C(F)(F)F)c12` [N′-Hydroxy-4-(4-ethoxy-9-trifluoromethyl-2-piperazin-1-yl-pyrido[3′,2′:4,5]thieno[3,2-d]pyrimidin-7-yl)-benzamidine bistrifluoroacetate], the IC50 in the data set on TNFα release was under 2000 nM; on PDE-4A it was under 2 nM. With `Nc1nc(F)nc2c1ncn2[C@@H]1O[C@H](CO)[C@@H](O)[C@@H]1O` [fludarabine], the “cytotoxicity, share of the cells” value in the data set on CLL cells is on record as at most 60%. As for `O=C(Nc1c(Cl)cncc1Cl)c1ccc(OC(F)F)c(OCC2CC2)c1` [roflumilast], in the data set with PDE-4, the IC50 was 0.8 nM.

One may read the melting point as the temperature of the solid-liquid transition. By IC50 is commonly meant the midpoint of a concentration-inhibition curve.
